The values below come from patent US9815865B2, “Preparations of hydrophobic therapeutic agents, methods of manufacture and use thereof” (Aciex Therapeutics, Inc., priority 2013, dated 2017).

A short description of data set [1]: Saturated solubility and rate of dissolution of FP. As to the method: The saturated solubility of FP was measured by HPLC for the nanocrystals produced by the batch process of the invention, FP homogenized and FP stock material.
A short description of data set [2]: Stability of FP nanocrystal suspensions (assay, impurities, pH, particle size). It is filed as physicochemical. An excerpt:
This phase III composition was also stable chemically for more than 4 weeks at 40 degrees C. This combination of polymers also maintains the particle size at its original size for 5-14 days.
The stability of the nanocrystals is controlled by the pH of phase III, which is formed by the combination of phase I and phase II. A 20 gram batch of nanocrystals were produced at pH 5.5 and placed on stability at 25 degrees C. Another 20 gram batch was produced at pH 7.5 and stability determined at 25 degrees C. for 30 days. Unexpectedly, the particles at 7.5 grew rapidly to an average particle size greater than 1 micron. This phenomenon was verified for batches at the 50 gram scale.
It was also observed that the final compositions or formulations of FP were stable across all concentrations tested, i.e., 0.005%, 0.01%, 0.1%, and 10%. Samples were placed in 4° C., 25° C., 40° C. stability chambers. Stability time-points: T=0d, T=1 week, T=2 weeks, T=4 weeks.
Nanocrystals prepared by the batch process were tested on stability, to assess if the particle size distribution remained with a narrow range of 400-600 nm. […]
Samples were measured for particle size, pH, osmolality and assay. […]

Data set [3] in a line: Tap density. The format is physicochemical.
Data set [4] can be described thus: Solubility of triamcinolone acetonide in non-aqueous solvents. The format is physicochemical. The note with it: preliminary estimation; for solubility at 15 min: organic solvent or mixture, thermodynamic from solid. The method, then: Triamcinolone Acetonide (TA), stock was used as received from the manufacturer. Solubility of Triamcinolone Acetonide (TA) was measured in propylene glycol, polypropylene glycol, TWEEN® 20 (polysorbate 20), TWEEN 80 (polysorbate 80), PEG 400.
Initially, 5 mg of the TA was added to 10 g of solvent; the mixture was vortexed for 5 min, and sonicated for 10 min in a water bath. 1-5 mg of TA was added when the initial amount dissolved in the solvent completely—clear solution of TA in solvent. The process was continued until saturation solubility was reached. The solvent that provided the highest solubility was chosen for further development as Phase I.
The solubility of TA in propylene glycol, polypropylene glycol, PEG 400, TWEEN® 20 (polysorbate 20) and TWEEN® 80 (polysorbate 80) was evaluated. Initially, 5 mg of TA was added to these solvents and the suspension was vortexed and sonicated for 15 min in a water bath at 37° C. When the API (i.e., TA) dissolved, 1 mg of drug was added to the vial. This process was continued until a preliminary estimation of the drug in all solvents was achieved.

The conditions of data set [5]: cited from earlier work.
Data set [6] is described as follows: Solubility of fluticasone propionate in FDA-approved solvents and excipients (RP-HPLC at 239 nm). The format is physicochemical. The method, then:
The specific composition of Phase I depends upon the solubility of the drug in this phase. […] The suspension was centrifuged at 10,000 rpm and the supernatant analyzed by RP-HPLC at 239 nm.

For data set [7] the following is noted: oral dosing of labeled and unlabeled conventional fluticasone propionate; cited from earlier work.
Data set [8] can be described thus: In-vitro dissolution study in vitreous humor. The format is physicochemical, Bovine. The note with it: crystals at 10 μm, 37° C., versus micronized TA at 10μ (FIG. 50). The method, then:
The rate of dissolution of ACX-TA crystals versus micronized TA in vitreous humor was studied. Bovine eyes were obtained fresh, and the vitreous humor was extracted. The vitreous humor was stored at 5° C., prior to use. 1 ml of crystals of various sizes (1.78 μm, 4.7 μm, 10.18 μm, or 15 μm) were incubated in a shaking incubator at 37° C. Crystals were prepared as described in Table 37 or 38. The crystals of 1.78 μm were prepared using citrate buffer and were of Form B, and the crystals of 4.7 μm, 10.18 μm, and 15 μm were prepared using phosphate buffer and were of Form C.

≈ marks a conversion by molar mass, not a printed value. Like-named read-outs stand apart in the source and are kept apart here.

On to `CCC(=O)O[C@]1(C(=O)SCF)[C@H](C)C[C@H]2[C@@H]3C[C@H](F)C4=CC(=O)C=C[C@]4(C)[C@@]3(F)[C@@H](O)C[C@@]21C` [Form A], for which, in data set [1] (in water at room temperature), the dissolution rate entry is “about 1 μg/g/day”. Further, the “time to reach saturated solubility” value in data set [1] (incubation in an aqueous medium) is reported as 6 weeks. Moreover, the agglomeration over time entry in data set [2] (after purification (FIG. 10)) was “did not display any agglomeration over time”. Besides, the “average particle size on stability” value in data set [2] (phase III pH 7.5, 25 degrees C. for 30 days) was “greater than 1 micron”. Besides, the tap density in data set [3] and in data set [3] (listed as dried fluticasone propionate crystals prepared by the batch process) was 0.5786 g/mL throughout.

`CCC(=O)O[C@]1(C(=O)SCF)[C@H](C)C[C@H]2[C@@H]3C[C@H](F)C4=CC(=O)C=C[C@]4(C)[C@@]3(F)[C@@H](O)C[C@@]21C` [FP homogenized]: the saturated solubility in data set [1] is 40 to 45 µg/mL.

As to `CC1(C)O[C@@H]2C[C@H]3[C@@H]4CCC5=CC(=O)C=C[C@]5(C)[C@@]4(F)[C@@H](O)C[C@]3(C)[C@]2(C(=O)CO)O1` [TA stock material], the tap density in data set [3] came to 0.4211 g/mL.

Turning to `CC1(C)O[C@@H]2C[C@H]3[C@@H]4CCC5=CC(=O)C=C[C@]5(C)[C@@]4(F)[C@@H](O)C[C@]3(C)[C@]2(C(=O)CO)O1` [triamcinolone acetonide, (4aS,4bR,5S,6aS,6bS,9aR,10aS,10bS)-4b-fluoro-6b-glycoloyl-5-hydroxy-4a,6a,8,8-tetramethyl-4a,4b,5,6,6a,6b,9a,10,10a,10b,11,12-dodecahydro-2H-naphtho[2′,1′:4,5]indeno[1,2-d][1,3] dioxol-2-one], the solubility (as a rule, how much of the substance goes into solution per volume) is 7000 µg/mL (≈ 16.1 mM) in data set [4] (in PEG 400, 37° C.) and 8000 µg/mL (≈ 18.4 mM) in data set [4] (in polypropylene glycol, 37° C.). The solubility at 15 min in data set [4] (in Propylene glycol, sonicated in water bath at 37° C.) is 14000 µg/mL (≈ 32.2 mM); in data set [4] (in TWEEN 20 (polysorbate 20), 37° C.) it was 5500 µg/mL (≈ 12.7 mM); in data set [4] (in TWEEN 80 (polysorbate 80), 37° C.), 4000 µg/mL (≈ 9.21 mM). Moreover, in data set [5] (at 28° C.), the water solubility was 17.5 µg/mL (≈ 0.0403 mM). Moreover, the “solubility (descriptive)” value in data set [5] (in water) is listed as “practically insoluble”.

`CCC(=O)O[C@]1(C(=O)SCF)[C@H](C)C[C@H]2[C@@H]3C[C@H](F)C4=CC(=O)C=C[C@]4(C)[C@@]3(F)[C@@H](O)C[C@@]21C` [FP stock material]: the “time to reach saturated solubility” value in data set [1] was at most 2 weeks. In data set [3] (listed as fluticasone propionate stock), this molecule came in with a tap density of 0.3278 g/mL.

For `CCC(=O)O[C@]1(C(=O)SCF)[C@H](C)C[C@H]2[C@@H]3C[C@H](F)C4=CC(=O)C=C[C@]4(C)[C@@]3(F)[C@@H](O)C[C@@]21C` [fluticasone propionate, (6α,11β,16α,17α)-6,9,-difluoro-11-hydroxy-16-methyl-3-oxo-17-(1-oxopropoxy) androsta-1,4-diene-17-carbothioic acid, S-fluoromethyl ester], the solubility in data set [6] (Acetone, 25 °C, organic solvent or mixture, thermodynamic from solid, in Acetone, overnight at 25 degrees centigrade, read-out: Solubility) is 63000 µg/mL (≈ 126 mM); in data set [6] (Castor oil, 25 °C, oil or lipid, thermodynamic from solid, in Castor oil, overnight at 25 degrees centigrade, read-out: Solubility), 18 µg/mL (≈ 0.036 mM); in data set [6] (Corn oil, 25 °C, oil or lipid, thermodynamic from solid, in Corn oil, overnight at 25 degrees centigrade, read-out: Solubility), 6.9 µg/mL (≈ 0.0138 mM); in data set [6] (Ethanol, 25 °C, organic solvent or mixture, thermodynamic from solid, in Ethanol, equilibrated overnight at 25 degrees centigrade, read-out: Solubility), 4450 µg/mL (≈ 8.88 mM); in data set [6] (Glycerin, 25 °C, organic solvent or mixture, thermodynamic from solid, in Glycerin, overnight at 25 degrees centigrade, read-out: Solubility) it was 144 µg/mL (≈ 0.288 mM); in data set [6] (Methylene Chloride, 25 °C, organic solvent or mixture, thermodynamic from solid, in Methylene Chloride, overnight at 25 degrees centigrade, read-out: Solubility), 9250 µg/mL (≈ 18.5 mM). For the same molecule, the solubility is 4210 µg/mL (≈ 8.4 mM) in data set [6] (PEG 200, 25 °C, organic solvent or mixture, thermodynamic from solid, in PEG 200, overnight at 25 degrees centigrade, read-out: Solubility); 4330 µg/mL (≈ 8.65 mM) in data set [6] (PEG 400, 25 °C, organic solvent or mixture, thermodynamic from solid, in PEG 400, overnight at 25 degrees centigrade, read-out: Solubility); 426 µg/mL (≈ 0.851 mM) in data set [6] (PHOSAL 50 PG, 25 °C, oil or lipid, thermodynamic from solid, in PHOSAL 50 PG, overnight at 25 degrees centigrade, read-out: Solubility); 2230 µg/mL (≈ 4.45 mM) in data set [6] (PPG, 25 °C, organic solvent or mixture, thermodynamic from solid, in PPG, overnight at 25 degrees centigrade, read-out: Solubility); 7060 µg/mL (≈ 14.1 mM) in data set [6] (Polysorbate 20, 25 °C, aqueous with cosolvent or surfactant or cyclodextrin, thermodynamic from solid, in Polysorbate 20, overnight at 25 degrees centigrade, read-out: Solubility); 4910 µg/mL (≈ 9.81 mM) in data set [6] (Polysorbate 60, 25 °C, aqueous with cosolvent or surfactant or cyclodextrin, thermodynamic from solid, in Polysorbate 60, overnight at 25 degrees centigrade, read-out: Solubility). In addition, the solubility in data set [6] (Polysorbate 80, 25 °C, aqueous with cosolvent or surfactant or cyclodextrin, thermodynamic from solid, in Polysorbate 80, overnight at 25 degrees centigrade, read-out: Solubility) was found to be 4660 µg/mL (≈ 9.3 mM); in data set [6] (Propylene glycol, 25 °C, organic solvent or mixture, thermodynamic from solid, in Propylene glycol, overnight at 25 degrees centigrade, read-out: Solubility), 764 µg/mL (≈ 1.53 mM); in data set [6] (Span 20, 25 °C, aqueous with cosolvent or surfactant or cyclodextrin, thermodynamic from solid, in Span 20, overnight at 25 degrees centigrade, read-out: Solubility) it was 46.9 µg/mL (≈ 0.0937 mM); in data set [6] (Span 80, 25 °C, aqueous with cosolvent or surfactant or cyclodextrin, thermodynamic from solid, in Span 80, overnight at 25 degrees centigrade, read-out: Solubility) it was 52.1 µg/mL (≈ 0.104 mM); in data set [6] (in Dextrose 5%, overnight at 25 degrees centigrade), 5.3 µg/mL (≈ 0.0106 mM); in data set [6] (in PHOSAL 50 PG, overnight at 25 degrees centigrade) it was 660.1 µg/mL (≈ 1.32 mM). The solubility was determined as 400 µg/mL (≈ 0.799 mM) in data set [6] (in PHOSAL 53 MCT, overnight at 25 degrees centigrade); 87.3 µg/mL (≈ 0.174 mM) in data set [6] (in n-octanol, overnight at 25 degrees centigrade); 13.6 µg/mL (≈ 0.0272 mM) in data set [6] (oleic acid, 25 °C, oil or lipid, thermodynamic from solid, in oleic acid, overnight at 25 degrees centigrade, read-out: Solubility); 9.5 µg/mL (≈ 0.019 mM) in data set [6] (phosphate buffer, 25 °C, pH 7, aqueous buffer, thermodynamic from solid, in Phos buff pH = 7, overnight at 25 degrees centigrade, read-out: Solubility); 0.14 µg/mL (≈ 0.00028 mM) in data set [6] (water, 25 °C, water, thermodynamic from solid, in water, overnight at 25 degrees centigrade, read-out: Solubility). For the same molecule, the “solubility (descriptive)” value is recorded as “freely soluble” in data set [5] (in dimethyl sulfoxide and dimethyl-formamide); “slightly soluble” in data set [5] (in methanol and 95% ethanol). Further, the oral systemic bioavailability in data set [7] was under 1%.

As for `CC1(C)O[C@@H]2C[C@H]3[C@@H]4CCC5=CC(=O)C=C[C@]5(C)[C@@]4(F)[C@@H](O)C[C@]3(C)[C@]2(C(=O)CO)O1` [ACX-TA crystals], the “rate of dissolution in vitreous humor” value in data set [8] was “much slower rate of dissolution than micronized TA”. In addition, in data set [3], the tap density came out at 0.5677 g/mL.
